Source: patent US20230201292A1, “HERBAL FORMULATION FOR THE PREVENTION AND MANAGEMENT OF TYPE-2 DIABETES MELLITUS AND ASSOCIATED MICROVASCULAR COMPLICATIONS” (priority 2021, published 2023)

Test system: Streptozotocin (STZ) treated diabetic rats
Assay: Streptozotocin (STZ) treated diabetic rats: blood glucose, hs CRP, IL-6, adiponectin
Format: in vivo
Settings: for Blood glucose level: STZ (65 mg/kg) diabetic rats; for Adiponectin / IL-6 / hs CRP: STZ diabetic rats

With C[C@H]1O[C@H](O[C@H]2[C@H](O)[C@@H](O)[C@@H](O[C@H]3[C@H](O)[C@@H](O)C(O)O[C@@H]3CO)O[C@@H]2CO)[C@H](O)[C@@H](O)[C@@H]1N[C@H]1C=C(CO)[C@@H](O)[C@H](O)[C@H]1O (stereo partly drawn) [Acarbose] the Blood glucose level (7th Days) was 228.33 ± 19.44 mg/day, the Blood glucose level (14th Days) was 192.74 ± 15.18 mg/day and the Blood glucose level (28th Days) was 157.51 ± 10.24 mg/day. The Adiponectin (7th Days) was 8.87 ± 2.10 µg/mL, the IL-6 (7th Days) was 2.87 ± 0.25 pg/mL and the “hs CRP” value (7th Days) was 6.78 ± 1.52 mg/L. For the same compound, the Adiponectin (14th Days) was 9.65 ± 1.63 µg/mL, the IL-6 (14th Days) was 2.49 ± 0.32 pg/mL and the “hs CRP” value (14th Days) was 5.43 ± 0.75 mg/L. The Adiponectin (28th Days) was 10.23 ± 2.14 µg/mL, the IL-6 (28th Days) was 2.23 ± 0.26 pg/mL and the “hs CRP” value (28th Days) was 4.97 ± 0.87 mg/L.
